SMILES strings stand for the structures.

In this assay the target is purified human Factor XIIa (Homo sapiens (Human), UniProt P00748). Description: Factor XIIa assay. Type of assay: biochemical. The settings on record: substrate n-Acetyl-Lys-Pro-Arg-AFC 100 μM, pH 7.4, read-out: FXIIa IC50. As for the experimental part: “FXIIa IC50(nm)” is Human Factor XIIa IC50 (nm).
purified human Factor XIIa, sequence (P00748 373-615): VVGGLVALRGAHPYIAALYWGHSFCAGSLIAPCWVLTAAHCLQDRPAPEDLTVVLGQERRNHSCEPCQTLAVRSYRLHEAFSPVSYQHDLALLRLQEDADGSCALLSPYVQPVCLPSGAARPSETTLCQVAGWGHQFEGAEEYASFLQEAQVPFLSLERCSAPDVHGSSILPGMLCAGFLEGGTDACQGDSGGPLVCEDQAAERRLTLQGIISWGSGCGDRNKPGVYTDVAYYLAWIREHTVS
purified human Factor XIIa, sequence (P00748 20-372 partner): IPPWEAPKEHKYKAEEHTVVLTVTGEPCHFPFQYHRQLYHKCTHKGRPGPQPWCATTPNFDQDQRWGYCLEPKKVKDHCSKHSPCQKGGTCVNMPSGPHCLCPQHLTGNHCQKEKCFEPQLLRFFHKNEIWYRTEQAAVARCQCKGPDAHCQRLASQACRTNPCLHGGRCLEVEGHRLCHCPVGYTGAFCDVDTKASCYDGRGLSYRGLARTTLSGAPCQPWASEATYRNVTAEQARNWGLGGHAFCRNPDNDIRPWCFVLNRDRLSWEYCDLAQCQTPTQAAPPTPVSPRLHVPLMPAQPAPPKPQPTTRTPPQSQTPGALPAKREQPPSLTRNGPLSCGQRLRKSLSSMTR
The effectiveness of a compound of the present invention as an inhibitor of Coagulation Factor XIIa can be determined using a relevant purified serine protease, and an appropriate synthetic substrate. The rate of hydrolysis of the chromogenic or fluorogenic substrate by the relevant serine protease was measured both in the absence and presence of compounds of the present invention. Assays were conducted at room temperature or at 37° C. […] A decrease in the rate of fluorescence change in the presence of inhibitor is indicative of enzyme inhibition. Such methods are known to one skilled in the art. The results of this assay are expressed as the IC50, the inhibitor concentration causing a 50% decrease in Factor XIIa protease activity.
Factor XIIa activity determinations were made in 50 mM HEPES buffer containing 150 mM NaCl, 5 mM CaCl2, and 0.1% PEG 8000 (polyethylene glycol; JT Baker or Fisher Scientific) at pH 7.4. Determinations were made using purified human Factor XIIa at a final concentration of […] (Sekisui Diagnostics) and the synthetic substrate, n-Acetyl-Lys-Pro-Arg-AFC, TFA salt (Sigma # C6608) at a concentration of 100 μM.
Times required to achieve equilibration between enzyme and inhibitor were determined in control experiments. Initial velocities of product formation in the absence (Vo) or presence of inhibitor (Vi) were measured.
Broadly, the IC50 is the concentration needed to halve the response being measured. With `CS(=O)(=O)NCCCC[C@@H](NC1CCC2(CC1)CCN(Cc1ccccc1)C2)C(=O)N1CC[C@@H](NC(=O)N2CCC3(CC2)CC3)[C@@H](C(=O)NCc2cccs2)C1` (stereo partly drawn) [Compound 18, N-{(3S,4R)-1-[N~2~- (2-benzyl-2-azaspiro[4.5]dec-8-yl)-N~6~-(methylsulfonyl)-D-lysyl]-3-[(thiophen-2-ylmethyl)carbamoyl]pi-peridin-4-yl}-6-azaspiro[2.5]octane-6-carboxamide], the IC50 worked out at 29.2 nM.
The value for `NCc1ccc(CNC(=O)[C@H]2CN(C(=O)[C@@H](CC3CC3)NC3CCCCC3)CC[C@H]2NC(=O)N2CCC3(CC2)CC3)cc1` [Compound 12, N-[(3S,4R)-3-{[4-(amino-methyl)benzyl]carbamoyl}-1-(N-cyclohexyl-3-cyclopropyl-D-alanyl)piperidin-4-yl]-6-azaspiro[2.5]octane-6-carboxamide] was 41.7 nM.
Take `Cc1cnc(C(=O)N[C@@H]2CCN(C(=O)[C@@H](CC3CCCCC3)NC3CCCCC3)C[C@@H]2C(=O)NCc2ccnc(N)c2)s1` [Compound 4, (3S,4R)-N-[(2-aminopyridin-4-yl)methyl]-1-(N,3-dicyclohexyl-D-alanyl)-4-{[(5-methyl-1,3-thiazol-2-yl)carbonyl]amino}pi-peridine-3-carboxamide]: the concentration for half-maximal inhibition (IC50) worked out at 65.1 nM.
On to `CN(C)CCCC[C@H](C(=O)N1CC[C@@H](NC(=O)N2CCC3(CC2)CC3)[C@@H](C(=O)NCc2cccs2)C1)N(C)C1CCCCC1` [Compound 33, N-{(3S,4R)-1-(N~2~- cyclohexyl-N~2~,N~6~,N~6~- trimethyl-D-lysyl)-3-[(thiophen-2-ylmethyl)carbamoyl]pi-peridin-4-yl}-6-azaspiro[2.5]octane-6-carboxamide], for which the IC50 stood at 15.1 nM.
As for `CN(C1CCCCC1)[C@H](CCCCNS(C)(=O)=O)C(=O)N1CC[C@@H](NC(=O)N2CCC3(CC2)CC3)[C@@H](C(=O)NCc2cccs2)C1` [Compound 30, N-{(3S,4R)-1-[N~2~- cyclohexyl-N~2~- methyl-N~6~- (methylsulfonyl)-D-lysyl]-3-[(thiophen-2-ylmethyl)carbamoyl]pi-peridin-4-yl}-6-azaspiro[2.5]octane-6-carboxamide], the IC50 was found to be 50.1 nM.
Consider `CN(C)CCCC[C@H](C(=O)N1CC[C@@H](NC(=O)N2CCCc3ccccc32)[C@@H](C(=O)NCc2cccs2)C1)N(C)C1CCCCC1` [Compound 27, N-{(3S,4R)-1-(N~2~- cyclohexyl-N~2~,N~6~,N~6~- trimethyl-D-lysyl)-3-[(thiophen-2-ylmethyl)carbamoyl]pi-peridin-4-yl}-3,4-dihydroquinoline-1(2H)-carboxamide], for which the IC50 stood at 110 nM.
Take `O=C(NCc1cccs1)[C@H]1CN(C(=O)[C@@H](CC2CCNCC2)NC2CCCCC2)CC[C@H]1NC(=O)N1CCC2(CC1)CC2` [Compound 20, N-{(3S,4R)-1-(N-cyclohexyl-3-piperidin-4-yl-D-alanyl)-3-[(thiophen-2-ylmethyl)carbamoyl]pi-peridin-4-yl}-6-azaspiro[2.5]octane-6-carboxamide]: the 50% inhibitory concentration (IC50) is 47.2 nM.
The same measure for `CC(=O)OCCCC[C@@H](NC1CCCCC1)C(=O)N1CC[C@@H](NC(=O)N2CCC3(CC2)CC3)[C@@H](C(=O)NCc2cccs2)C1` [Compound 26, (5R)-6-{(3S,4R)-4-[(6-azaspiro[2.5]oct-6-ylcarbonyl)amino]-3-[(thiophen-2-ylmethy)carbamoyl]pi-peridin-1-yl}-5-(cyclohexylamino)-6-oxohexyl acetate]: 65.9 nM; for `NCCCC[C@@H](NC1CCCCC1)C(=O)N1CC[C@@H](NC(=O)N2CCC3(CC2)CC3)[C@@H](C(=O)NCc2cccs2)C1` [Compound 11, N-{(3S,4R)-1-(N~2~- cyclohexyl-D-lysyl)-3-[(thiophen-2-ylmethyl)carbamoyl]pi-peridin-4-yl}-6-azaspiro[2.5]octane-6-carboxamide]: 71.6 nM.
The same measure for `CN(C)CCCC[C@H](C(=O)N1CC[C@@H](NC(=O)c2ccccc2)[C@@H](C(=O)NCc2cccs2)C1)N(C)C1CCCCC1` [Compound 8, (3S,4R)-1-(N~2~- cyclohexyl-N~2~,N~6~,N~6~- trimethyl-D-lysyl)-4-[(phenylcarbonyl)amino]-N-(thiophen-2-ylmethyl)piperidine-3-carboxamide]: 60.2 nM; for `CN(C)CCCC[C@@H](NC1CCCCC1)C(=O)N1CC[C@@H](NC(=O)N2CCCc3ccccc32)[C@@H](C(=O)NCc2cccs2)C1` [Compound 28, N-{(3S,4R)-1-(N~2~- cyclohexyl-N~6~,N~6~-dimethyl-D-lysyl)-3-[(thiophen-2-ylmethyl)carbamoyl]pi-peridin-4-yl}-3,4-dihydroquinoline-1(2H)-carboxamide]: 102 nM.
The value for `NCCCC[C@@H](NC1CCCCC1)C(=O)N1CC[C@@H](NC(=O)N2CCC3(CC2)CC3)[C@@H](C(=O)NCc2ccc(CN)cc2)C1` [Compound 14, N-[(3S,4R)-3-{[4-(amino-methyl)benzyl]carbamoyl}-1-(N~2~-cyclohexyl-D-lysyl)piperidin-4-yl]-6-azaspiro[2.5]octane-6-carboxamide] was 18.7 nM.
With `Cc1ccc(C(=O)N[C@@H]2CCN(C(=O)[C@@H](CCCCN(C)C)N(C)C3CCCCC3)C[C@@H]2C(=O)NCc2cccs2)c(F)c1` [Compound 29, (3S,4R)-1-(N~2~- cyclohexyl-N~2~,N~6~,N~6~- trimethyl-D-lysyl)-4-{[(2-fluoro-4-methyl-phenyl)carbonyl]amino}-N-(thiophen-2-ylmethyl)piperidine-3-carboxamide], the IC50 turned out to be 37.6 nM.

The record behind these values is patent US11014920B2, “Factor XIIa inhibitors” (Merck Sharp & Dohme Corp., priority 2016, dated 2021).
